This is an account of results in patent US20130085105A1, “Transdermal Administration Of Peptides” (The Provost, Fellows and Scholars of the College of Holy …, priority 2010, published 2013).

Molecules are shown by their SMILES. Values joined by “and” are separate entries in the source; they are usually repeats but may differ in a detail not shown here. Equal entries are not always repeated. Where two headings read alike, the source gives them in different places.

Series [1] can be described thus: Solubility of somatostatin fatty-acid salts. Format: physicochemical. The settings on record: 24 hours. The procedure:
The solubilities of Compound A and Compound B oleate were determined in deionized water, phosphate-buffered saline (PBS; pH 7.4) and n-octanol. Analysis was carried out by placing an excess of each salt with 1 ml of the selected solvent into four 4 ml sealed HPLC vials. The samples were allowed to equilibrate at 37° C. for 24 hours with shaking. Each of the four dispersions was then filtered through a 0.2 μm nylon membrane (Pall Gelman, Ann Arbor, Mich., U.S.A.). Prior to HPLC analysis, the n-octanol samples were diluted 1:100 with methanol and the PBS and deionized water samples were diluted 1:10 in de-ionized water. Table 7 lists the solubilities of Compound A and Compound B oleate salts in deionized water, PBS and n-octanol.

Series [2] is described as follows: In vitro transdermal permeation, diffusion cell, hairless mouse skin. It counts as in vitro ADME, hairless mice. An excerpt:
The abdominal skin from male hairless mice (mice of the HRS strain carrying a mutant Hr gene (hr/hr)) aged 6-8 weeks was cleaned of any subcutaneous fat with blood vessels while maintaining the integrity of the viable epidermis and SC. The excised skin was used immediately after preparation and was not stored prior to use.
(§1) A custom made finite dosing diffusion cell (AGB Scientific, Dublin, Ireland, FIG. 1) based upon and modified from the Keshary-Chien type diffusion cell was used for in vitro permeation studies.
(§2) Three to five diffusion cells were used in each permeation experiment and monitoring was performed over a 48 hour period. The cells were linked in series to a thermostatically controlled circulation bath set at 35° C. to mimic human skin surface temperature. Each cell was placed on a stir-plate set at a defined stirring rate of 1,000 rpm. The surface area for permeation provided by each cell was 3.14 cm^2.
(§3) Data collected from each permeation study included:
(§4) 1) the average maximum flux obtained in 48 hours (Jmax),
(§5) 2) the total absorption characterized as the total weight of peptide delivered transdermally into the receiver compartment over a 48 hour period,
(§6) 3) the lag time to detectable flux which was equivalent to the latest sampling time at which no peptide was detectable by HPLC analysis of the receiver solution, and
(§7) 4) an equivalent 48-hour steady state flux was determined by obtaining the slope of the best-fit line for a plot of cumulative flux per unit area versus time (described by McDaid, D. M. et al., Int. J. Pharm., 133:71-83, 1996).
(§8) Fresh hairless mouse skin samples or fresh or freshly thawed pig skin samples were mounted onto the diffusion cell with the SC topmost and in contact with the donor system. A rubber or plastic ring was placed on top of the skin sample to secure it in position. The combination of the diffusion cell top, the skin and the rubber ring was securely fastened together by means of a threaded cap. A recorded volume of receiver solution was added to the receiver compartment and maintained at 35° C. The receiver solution was 60/40 (v/v) PBS/propylene glycol (pH 7.1). The propylene glycol fraction was used to increase the solubility of the somatostatin-fatty acid salts. Previous work reported by Morgan et al. (J. Pharm. Sci., 87:1213-1218, 1998) has shown that a 50/50 water/propylene glycol receptor solution had no detrimental effect on the barrier integrity of both hairless mouse and porcine skin.
The receiver solution was allowed to equilibrate at 35° C. for 30 minutes. […] A narrow-bore hypodermic needle was used to withdraw 1 ml samples from the receiver compartment via the sampling port; at each sampling time, an equal volume of drug-free receiver solution was immediately added back to the receiver compartment. Samples were analyzed by HPLC.
HPLC determination of peptide content in the receiver solution along with the known surface area of skin used (3.14 cm^2) allowed for calculation of transdermal flux (in units of μg/cm^2/hr) for each time point. Panels 1 and 2 of FIG. 2 show flux […] profiles for the myristate, octanoate, decanoate, linoleate, nonanote, acetate and laurate […]
Once lead candidate somatostatin-fatty acid salts had been selected on the basis of in vitro permeation in a DMSO solution, the effect of different solvents and penetration enhancers on permeation was assessed. The concentration of the donor solution corresponded to 5 mg/ml free base peptide for all experiments and all donor solutions were equilibrated at 37° C. for one hour prior to use. These experiments were carried out using hairless mouse skin and pigskin barriers.

Series [3] in a line: In vitro transdermal permeation, diffusion cell, pig epidermis. It counts as in vitro ADME, domestic pigs. Here is the method: The viable epidermal layer was removed from the flanks of freshly sacrificed four month-old female domestic pigs. The flank area of each animal was carefully shaved and the upper 200 μm of skin (Meyer, W., et al., Curr. Prob. Dermatol., 7: 39-52, 1978; de Jalón, et al., J. Control. Rel., 75:191-197, 2001) was harvested using an electric dermatome (Robbins Instruments, Chatham, N.J., U.S.A.). Pigskin epidermal specimens were frozen at −18° C. between layers of PBS-soaked tissue paper enclosed in aluminum foil for up to two weeks prior to use in in vitro permeation studies.
as §1, §2, §3, §4, §5, §6, §7, §8
The receiver solution was allowed to equilibrate at 35° C. for 30 minutes. The experiment was initiated by the application of 1 ml of donor solution containing approximately 5 mg free base peptide in DMSO to the skin surface followed by sealing of the donor compartment with Parafilm®. A narrow-bore hypodermic needle was used to withdraw 1 ml samples from the receiver compartment via the sampling port; at each sampling time, an equal volume of drug-free receiver solution was immediately added back to the receiver compartment. Samples were analyzed by HPLC.
HPLC determination of peptide content in the receiver solution along with the known surface area of skin used (3.14 cm^2) allowed for calculation of transdermal flux (in units of μg/cm^2/hr) for each time point. Panels 1 and 2 of FIG. 2 show flux profiles obtained for the oleate salts of Compound A and Compound B in DMSO which far exceeded the flux profiles for the myristate, octanoate, decanoate, linoleate, nonanote, acetate and laurate salts of Compound A as well as the acetate salt of Compound B in DMSO. […]

A short description of series [4]: Peptide content in upper and lower skin layers after permeation (tape stripping). It counts as in vitro ADME, hairless mice. The settings on record: percentage of total applied dose, hairless mouse skin. Here is the method: The quantity of peptide present in the upper SC and lower dermis layers of the hairless mouse skin samples were determined for each concentration of analog tested. To determine analog concentrations in the SC, the skin samples were wiped clean of donor solution, patted dry and stripped twenty times with Sellotape®, using a fresh piece for each stripping. The twenty pieces of Sellotape® were pooled in a 50 ml centrifuge tube and 10 ml of 50/50 (v/v) acetonitrile/0.1M TFA was added. The sample was homogenized at 20,000 rpm for 5 minutes and then filtered. The peptide content was determined using HPLC. To determine peptide content in the dermal layer, the remaining skin sample was cut into fine pieces, homogenized and analyzed as described.

The nature of series [5]: Calculation of required transdermal delivery rate in humans (Eqn. 10.5). Particulars: human; skin area of 20 cm^2; Cpss 1 ng/ml (Compound A), 0.5 ng/ml (Compound B, using Compound A parameters). The procedure: The values obtained for the intermediate dose of 21 μg/Kg were used to determine the necessary input rate, i.e., steady state flux, required in humans to achieve therapeutic plasma levels as outlined by Lee et al. (Res. Comm. Mol. Path. Pharmacol., 85, 337-346, 1994) in their studies on melatonin. […] As described by Chatterjee et al. (Pharm. Res., 14:1058-1065, 1997), the following equation can be used to predict required delivery rates, assuming transdermal delivery can be treated as an intravenous infusion:
where K0 is the required zero order delivery rate to achieve a therapeutic steady state plasma concentration (Cpss). […] Thus, for a skin area of 20 cm^2, the required steady-state transdermal flux would be 0.45 μg/cm^2/hr. Assuming a therapeutic plasma level of 0.5 ng/ml for Compound B and utilizing the relevant Compound A parameters, a required steady-state flux of 0.23 μg/cm^2/hr was calculated for a skin area of 20 cm^2.

[6] abbreviates: donor 55% EtOH 40% Water 5% Cineole, 5 mg/ml free base peptide.
Setting [7] is: donor 55/45 (v/v) EtOH/H2O, approx. 5 mg/ml free base peptide.
[8] abbreviates: donor DMSO, approx. 5 mg/ml free base peptide (4.9 mg/ml Compound A oleate, 5.2 mg/ml Compound A acetate).
Where [9] appears, read: donor DMSO, approx. 5 mg/ml free base peptide (4.9 mg/ml Compound A oleate, 5.2 mg/ml Compound A acetate), 48 hr.
Where [10] appears, read: donor propylene glycol, approx. 5 mg/ml free base peptide.
The mark [11] stands for this setting: pig epidermis, donor 55% EtOH 40% Water 5% Cineole, 5 mg/ml free base peptide.

One may read the solubility as the concentration that dissolves in the medium under given conditions. Consider `CC(C)[C@@H]1NC(=O)[C@H](CCCCN)NC(=O)[C@@H](Cc2c[nH]c3ccccc23)NC(=O)[C@H](Cc2ccc(O)cc2)NC(=O)[C@@H](NC(=O)[C@H](N)Cc2ccc3ccccc3c2)CSSC[C@@H](C(=O)N[C@H](C(N)=O)[C@@H](C)O)NC1=O` [Compound A di-oleate, D-2-Nal-c(Cys-Tyr-D-Trp-Lys-Val-Cys)-Thr-NH2], for which the solubility in series [1] (deionized water, 37° C., read-out: Solubility DI H2O) came to 35 µg/mL; in series [1] (n-octanol, 37° C., read-out: Solubility n-Octanol) it was 123000 µg/mL; in series [1] (pH 7.4, PBS pH 7.4, 37° C., read-out: Solubility PBS) it was 40 µg/mL. Also, the Jmax in series [2] (8.9 mg/ml free base in DMSO) is 24.942 μg/cm^2/hr; in series [2] (setting [6]), 14.100 μg/cm^2/hr; in series [2] (setting [7]), 11.343 μg/cm^2/hr; in series [2] (setting [9]), 19.887 μg/cm^2/hr; in series [2] (setting [10]), 0.366 μg/cm^2/hr; in series [3] (setting [11]) it was 9.019 μg/cm^2/hr. The Jss amounted to 3.342 μg/cm^2/hr in series [2] (8.9 mg/ml free base in DMSO); 6.359 μg/cm^2/hr in series [2] (setting [6]); 5.871 μg/cm^2/hr in series [2] (setting [7]); 2.858 μg/cm^2/hr in series [2] (setting [9]); 0.318 μg/cm^2/hr in series [2] (setting [10]); 1.407 μg/cm^2/hr in series [3] (setting [11]). The “Lag Time” value in series [2] (8.9 mg/ml free base in DMSO) was 0.5 h; in series [2] (setting [6]) it was 2 h; in series [2] (setting [7]), 2 h; in series [2] (setting [8]) it was 1.0 h and 1 h; in series [2] (setting [10]), 24 h; in series [3] (setting [11]), 1 h. For the same compound, the “Total Absorption” value turned out to be 522.82 μg/48 hr in series [2] (8.9 mg/ml free base in DMSO); 825.35 μg/48 hr in series [2] (setting [6]); 770.02 μg/48 hr in series [2] (setting [7]); 448.52 μg/48 hr in series [2] (setting [8]); 55.17 μg/48 hr in series [2] (setting [10]); 231.09 μg/48 hr in series [3] (setting [11]). Further, in series [2] (55/40/5 ethanol/water/cineole vs 55/45 ethanol/water), the “increase in total peptide flux over 48 hours due to cineole” value was found to be 7.19%. Moreover, the “flux profile in DMSO compared with other salts” value in series [2] (vs myristate, octanoate, decanoate, linoleate, nonanoate, acetate, laurate salts of Compound A and acetate of Compound B) was “far exceeded”. The Wt. % delivered in series [4] (4.9 mg free base in DMSO) stood at 9.23%; in series [4] (8.9 mg free base in DMSO), 5.84%. Also, the “Wt. % in lower skin layers” value in series [4] (4.9 mg free base in DMSO) stood at 7.63%; in series [4] (8.9 mg free base in DMSO), 1.09%. Further, the “Wt. % in upper skin layers” value in series [4] (4.9 mg free base in DMSO) came out at 20.22%; in series [4] (8.9 mg free base in DMSO), 49.93%.

With `CC[C@@H]1NC(=O)[C@H](CCCCN)NC(=O)[C@@H](Cc2c[nH]c3ccccc23)NC(=O)[C@H](Cc2ccc(O)cc2)NC(=O)[C@@H](NC(=O)[C@@H](Cc2ccccc2)NC(=O)CN2CCN(CCO)CC2)CSSC[C@@H](C(=O)N[C@H](C(N)=O)[C@@H](C)O)NC1=O` [Compound B, [4-(2-hydroxyethyl)]-1-piperazinylacetyl-D-Phe-c(Cys-Tyr-D-Trp-Lys-Abu-Cys)-Thr-NH2], the “estimated daily systemic delivery across human skin” value in series [3] was “approximately 2.665 mg”. Also, in series [5], the “required steady-state transdermal flux” value is 0.23 μg/cm^2/hr.
